Measured values reported in US9315498B2, “Arlethynyl derivatives” (Hoffmann-La Roche Inc., priority 2010, dated 2016).

Target: human mGlu5a receptor (Homo sapiens (Human), UniProt P41594)
Assay: Intracellular Ca2+ mobilization assay (mGlu5 PAM)
Type: cell-based
Details: for EC50: HEK-293 cells stably transfected with human mGlu5a, L-glutamate added at EC20 after pre-incubation with test compound, read-out: EC50 (nM) mGlu5PAM; for Emax: maximal response in % of the maximal stimulatory effect obtained with saturating concentrations of L-glutamate, read-out: Eff. (%)
Method in brief: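 HEK-293 cells stably expressing human mGlu5a at low level were loaded with Fluo-4AM and preincubated 10–30 min at 37 °C with 11-point half-log compound dilutions. L-glutamate was then added at its daily-determined EC20 (typically around 80 μM). Peak fluorescence minus basal, normalized to maximal glutamate effect, was fitted to give EC50, Hill slope and maximal response.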

human mGlu5a receptor, sequence (P41594 other isoform, or with tags, fused parts or gaps): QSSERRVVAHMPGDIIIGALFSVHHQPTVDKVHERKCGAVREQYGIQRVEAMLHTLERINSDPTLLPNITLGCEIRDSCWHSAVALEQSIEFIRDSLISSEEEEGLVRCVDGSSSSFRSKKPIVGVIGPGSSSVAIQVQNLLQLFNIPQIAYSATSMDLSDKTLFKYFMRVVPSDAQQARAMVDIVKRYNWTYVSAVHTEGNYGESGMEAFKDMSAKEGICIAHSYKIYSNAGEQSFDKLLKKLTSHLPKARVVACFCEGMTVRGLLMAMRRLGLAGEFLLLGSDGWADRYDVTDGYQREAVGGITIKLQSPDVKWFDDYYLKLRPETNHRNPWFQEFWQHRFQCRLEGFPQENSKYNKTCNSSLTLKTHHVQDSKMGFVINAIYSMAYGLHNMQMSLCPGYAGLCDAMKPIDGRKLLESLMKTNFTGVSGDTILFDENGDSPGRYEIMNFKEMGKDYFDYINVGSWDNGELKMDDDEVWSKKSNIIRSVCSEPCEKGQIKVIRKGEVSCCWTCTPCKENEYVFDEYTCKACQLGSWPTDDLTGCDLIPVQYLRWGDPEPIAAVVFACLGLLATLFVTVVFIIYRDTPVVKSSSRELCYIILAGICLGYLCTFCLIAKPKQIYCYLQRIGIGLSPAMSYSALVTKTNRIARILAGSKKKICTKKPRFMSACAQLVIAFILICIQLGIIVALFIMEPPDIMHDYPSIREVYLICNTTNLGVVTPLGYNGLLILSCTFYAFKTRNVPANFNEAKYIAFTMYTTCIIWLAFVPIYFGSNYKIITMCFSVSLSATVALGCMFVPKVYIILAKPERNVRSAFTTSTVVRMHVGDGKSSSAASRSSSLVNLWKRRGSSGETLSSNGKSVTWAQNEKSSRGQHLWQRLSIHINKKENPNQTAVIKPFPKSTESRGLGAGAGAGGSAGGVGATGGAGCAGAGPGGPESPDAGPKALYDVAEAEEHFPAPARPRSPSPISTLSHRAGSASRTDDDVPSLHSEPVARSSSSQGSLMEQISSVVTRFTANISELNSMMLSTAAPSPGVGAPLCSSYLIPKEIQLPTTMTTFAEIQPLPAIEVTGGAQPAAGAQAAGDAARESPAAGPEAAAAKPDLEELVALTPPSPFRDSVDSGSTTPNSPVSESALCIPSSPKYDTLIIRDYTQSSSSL

| Compound | EC50 [nM] | Emax [%] |
| --- | --- | --- |
| CC(C)N1C(=O)N(c2ncc(C#Cc3cccc(F)c3)cn2)CC1(C)C [Example 141, 1-[5-(3-Fluoro-phenylethynyl)-pyrimidin-2-yl]-3-isopropyl-4,4-dimethyl-imidazolidin-2-one] | 28 | 39 |
| CC(C)N1C(=O)N(c2ccc(C#Cc3ccccc3)cn2)CC1(C)C [Example 18, 3-Isopropyl-4,4-dimethyl-1-(5-phenylethynyl-pyridin-2-yl)-imidazolidin-2-one] | 39 | 133 |
| CC1(C)CCC(=O)N(c2ccc(C#Cc3cccc(F)c3)cn2)C1 [Example 43, 5′-(3-Fluoro-phenylethynyl)-5,5-dimethyl-3,4,5,6-tetrahydro-[1,2′]bipyridinyl-2-one] | 12 | 100 |
| CC1(C)CCN(c2ccc(C#Cc3cncc(Cl)c3)cn2)C(=O)C1 [Example 90, 5′-(5-Chloro-pyridin-3-ylethynyl)-4,4-dimethyl-3,4,5,6-tetrahydro-[1,2′]bipyridinyl-2-one] | 66 | 90 |
| O=C1OC2(CCCC2)CN1c1ccc(C#Cc2ccccc2)cn1 [Example 11, 3-(5-Phenylethynyl-pyridin-2-yl)-1-oxa-3-aza-spiro[4.4]nonan-2-one] | 39 | 52 |
| CN1C(=O)N(c2ccc(C#Cc3cccc(Cl)c3)nn2)CC1(C)C [Example 155, 1-(6-((3-Chlorophenyl)ethynyl)pyridazin-3-yl)-3,4,4-trimethylimidazolidin-2-one] | 73 | 95 |
| COC1C(=O)N(c2ncc(C#Cc3ccccc3)cn2)CC1(C)C (racemic) [Example 127, (RS)-3-Methoxy-4,4-dimethyl-1-(5-phenylethynyl-pyrimidin-2-yl)-pyrrolidin-2-one] | 29 | 94 |
| COC1C(=O)N(c2ccc(C#Cc3ccc(F)cc3)cn2)CC1(C)C (racemic) [Example 66, (RS)-1-[5-(4-Fluoro-phenylethynyl)-pyridin-2-yl]-3-methoxy-4,4-dimethyl-pyrrolidin-2-one] | 75 | 87 |
| O=C1OC2COCCC2N1c1ccc(C#Cc2ccccc2)cn1 (stereo not drawn) [Example 94, (3aSR,7aRS)-(3aRS,7RS)-1-(5-Phenylethynyl-pyridin-2-yl)-hexahydro-pyrano[4,3-d]oxazol-2-one] | 60 | 84 |
| O=C1O[C@H]2CCC[C@@H]2CN1c1ccc(C#Cc2ccccc2)cn1 (racemic) [Example 102, (4aRS,7aSR)-3-(5-Phenylethynyl-pyridin-2-yl)-hexahydro-cyclopenta[e][1,3]oxazin-2-one] | 43 | 115 |
